Results reported in US8387699B2, “Green coal bed methane fracturing fluid compositions, methods of preparation and methods of use” (Calfrac Well Services Ltd., priority 2008, dated 2013).

System: Vibrio fischeri NRRL-B-11177
Test: Microtox™ toxicity test (light emission of bioluminescent bacterium)
Format: cell-based
Conditions: constituent at the loading given; for EC50 Result (%): normally 50% light reduction over 15 minute at 15°C
Experimental: Under the Microtox™ protocols, the viability of known bacterial cultures is measured within a sample to produce a numeric result as well as a “pass/fail” indication.
The test is performed by rehydrating freeze dried cultures of the organism, supplied as the Microtox™ reagent and determining the initial light output of homogenized bacterial suspensions. Aliquots of osmotically adjusted sample and sample dilutions are added to the bacterial suspension, and light measurements are made at specific intervals (generally at 5 or 15 minutes) after exposure to test samples. The diluent control (blank) is used to correct time-dependant change in light output.
The Microtox™ test endpoint is measured as the effective or inhibitory concentration of a test sample that reduces light emission by a specific amount under defined conditions of time and temperature. Normally, this is expressed as an ECSO(15) or ICSO(15) which is the effective concentration or inhibitory concentration of a sample that reduces light emission of the test organism by 50% over a 15 minute test period at 15°C.
The EC50 or IC50 is calculated by log linear plotting of Concentration (C) vs percent Light Decrease (percent A), or more precisely by plotting Gamma Q (which is the corrected ratio of the amount of light lost to the amount of light remaining) versus Concentration on a log-log graph. Either a hand calculator or computer program data reduction systems may be used to calculate Gamma and the corresponding EC50 or ICSO values.
Thus, the desired loading for a fracturing fluid is determined and the viscosifier diluted to that loading in water and subjected to standardized Microtox™ testing.

| Molecule | Pass/Fail | EC50 Result (%) |
| --- | --- | --- |
| O=CO [0.002 wt % formic acid, formic acid] | Pass (>75% EC50 result is required for pass) | >91 |
| [Cl-].[K+] [4 wt % KCl water, KCl] | – | >91 |
| C[Si]1(C)O[Si](C)(C)O[Si](C)(C)O[Si](C)(C)O1 [octamethylcyclotetrasiloxane] | Pass (>75% EC50 result is required for pass) | 82 |
| hemicellulase enzyme [hemicellulase enzyme (0.02 wt %)] | – | >91 |
